Measured values taken from US20140017721A1 (The Research Foundation of State University of New York, priority 2012, published 2014).

System: prostate cancer cells (parental PPT2, primary tumor-derived)
Test: Cytotoxic drug treatment of parental primary prostate cancer cells under stemness-promoting culture
Format: cell-based, human
Conditions: 0.1-3 μM concentrations; FIG. 1C
Source text: Initially, the isolated fast adherent cells represented a mixture of a majority of tumor-associated fibrocytes with a minor population of large cancer cells (FIG. 1A).

Row | Structure (SMILES) | enrichment of multinucleated gigantic cells (highly drug resistant type of CSCs)
1 | CC(=O)O[C@@]12CO[C@@H]1C[C@H](O)[C@@]1(C)C(=O)[C@H](OC(=O)C3CC3)C3=C(C)[C@@H](OC(=O)[C@H](O)[C@H](C=C(C)C)NC(=O)OC(C)(C)C)C[C@@](O)([C@@H](OC(=O)c4ccccc4)[C@H]21)C3(C)C [SBT-1214] | significant enrichment and visualization of the multinucleated gigantic cells
2 | CC(=O)O[C@H]1C(=O)[C@@]2(C)[C@H]([C@H](OC(=O)c3ccccc3)[C@]3(O)C[C@H](OC(=O)[C@H](O)[C@@H](NC(=O)c4ccccc4)c4ccccc4)C(C)=C1C3(C)C)[C@]1(OC(C)=O)CO[C@@H]1C[C@@H]2O [Taxol] | significant enrichment and visualization of the multinucleated gigantic cells
